Laboratory results taken from publication PMC5067331, “Large Gliadin Peptides Detected in the Pancreas of NOD and Healthy Mice following Oral Administration” (Journal of Diabetes Research, 2016).
Entries after “also recorded” stand apart in the source; their conditions may differ. Where two headings read alike, the source gives them in different places. Ends that are not written are not given here.

Experiments:
[1] = MALDI-TOF MS of fragments formed in vitro during incubation of 33-mer in mouse plasma; type: in vitro ADME; conditions: 33-mer in mouse plasma at 37°C, 5 kDa MWCO filtrate or SDS-PAGE gel slice, sequence assigned by mass match
From the text: The extracts were combined.

[2] = MALDI-TOF MS of 33-mer fragments in plasma and pancreas after oral administration; conditions: for Sample in which the 33-mer fragment was found: mice 6–20 weeks, 500–900 μg 33-mer p.o., plasma and pancreas 45–60 min after administration, sequence assigned by mass match
Protocol: Plasma was fractionated in Amicon Ultra 10 kDa centrifugal filter units (Merck Millipore), Vivaspin 500, 5 kDa filter units (Sartorius), PD10 columns, Amicon Ultra 0.5 mL 10 kDa centrifugal filters, or SEP-PAK C18 Plus short cartridges (Waters), or they were ethanol-precipitated or acid-ethanol extracted. Slices from nonfixed gels were extracted overnight at 37°C in 100 μL of 50 mM NH4CO3 with or without 12.5 ng/μL Endoproteinase Glu-C Sequencing Grade (Roche Diagnostics). The gel slices were further extracted on a shaker for 15 min in 20 μL extraction buffer (1 : 2 (vol/vol) 50 mM NH4HCO3/acetonitrile). The extracts were combined.
Samples were dried in a vacuum concentrator (Eppendorf 5301) and reconstituted in 20 μL 5% acetic acid before desalting using POROS C18 matrix and elution onto a stainless steel 96-well MALDI target plate with 1 μL α-cyano-4-hydroxycinnamic acid (HCCA matrix) ready-made from Agilent (6 mg/mL in 30% acetonitrile, 30% methanol, and 0.1% TFA) for dried droplet crystallization. Analysis was done on Bruker Ultraflex with Daltonics flexAnalysis software, externally calibrated using a standard peptide mixture (Bruker, range: 1,000–3,200 Da). Spectra were recorded in positive linear mode and summed from 100 laser shots.
The MS mass of 84 fragments >800 Da was calculated. They were randomly generated from the 33-mer sequence, allowing for deamidation of up to two glutamine residues (only one deamidation for Mr <1500 Da) and for sodium and potassium ion adduct formation. Measured masses were matched to the predicted masses, using a difference of <0.5 Da as threshold. Masses from negative control samples were matched using a threshold of 1.0 and removed.

digestive proteases = conditions: cited from earlier work
[3] = mouse, in vivo, po
Protocol: (§2) For initial evaluation of accumulation and elimination in blood, NOD mice (6–8 weeks) received 230–900 μCi ^3H-33-mer or ^3H-19-mer. […] Organs were incubated with SOLVABLE (Perkin-Elmer) at 55°C until dissolved and then with 30% hydrogen peroxide to decolorize the solution. Ultima Gold (Perkin Elmer) was added, and samples were counted 1 h later in a Packard 1600TR scintillation counter.
(§3) Specific activities (dpm/mg tissue) were calculated by dividing the counts by the respective weight of the sample that was measured. The tissue distribution was examined using the tissue/blood ratios. To compare responses in blood across different doses (230–900 μCi), data were normalized to a dosage of 100 μCi.
(§4) Before oral gavage, mice were starved for 4 h and were not fed until 20 min after.
(§5) One-way ANOVA with Tukey posttest was carried out using GraphPad Prism version 5.00 for Windows (GraphPad Software, San Diego, California, USA) to analyze the distribution of the label at each time point. The stomach and intestine were excluded from the analysis due to their large variation.

[4] = Biodistribution of 3H label after oral administration (scintillation counting, tissue/blood ratio); conditions: NOD mice, shortly after administration (Figure 1(a)), 0.01 < p < 0.05, N = 2–4 mice
Protocol: as §2, §3, §4, §5

[5] = SDS-PAGE and fluorography of blood after i.v. or p.o. administration; conditions: mice, data not shown
albumin and IgG = test: Depletion of albumin and IgG from plasma, radioactivity in gel slices; type: in vivo, mouse
From the text: (§1) Supplementary file 2424306.f1.docx: Fig Supp 1. […] Abbreviations are as in Fig 1.Fig Supp 2. […] CT: control 33-mer/19-mer. […] CT is control 33-mer. […] CT is control 33-mer.

[6] = LC-MS detection of 33-mer in plasma; type: in vivo, BALB/c mice; conditions: BALB/c, methanol-TFA precipitation
Protocol: BALB/c mice, 4–16 weeks of age, were given 650–900 μg of 33-mer, either i.v. or p.o., and heparin-plasma was prepared 15–60 min later at 0°C. Protein inhibitors were added to the tissues that were homogenized, mixed with internal standard (GENESEQP:AZF58701), and precipitated with 50% methanol, 1% TFA, and centrifugation. The samples were analyzed using an Orbitrap XL (Thermo Scientific) equipped with a Nano LC (Easy nLC II, Thermo Scientific). The chromatographic system was a 10 cm, ID 75 μm, 3 μm C18-A2 column (Thermo Scientific) with a flow of 300 nL/min with 0.1% formic acid as mobile phase A and 0.1% formic acid in acetonitrile as B. The MS scan was performed using a resolution of 30000 and a scan range of 300–2000 m/z.

trypsin = test: Trypsin digestion of plasma/serum followed by SDS-PAGE and fluorography; type: in vitro ADME; conditions: serum; dithiothreitol/SDS at 53°C pH 7.5 45 min, then trypsin at 37°C
From the text: as §1

[7] = mouse, in vivo
Protocol: (§6) Standard tissue sections were dipped in a 1 : 1 dilution in water of melted Kodak NTB Emulsion with 10% Amplify Fluorographic Reagent (GE Healthcare), air-dried, stored in the dark at 4°C with desiccant for 1–3 weeks, developed in Kodak D19 developer, fixed in Ilford Rapid Fixer, HE stained, and examined in an Olympus Bx51 microscope (UPlanSApo 20x, 0.40) equipped with a Colorview 1 camera and Analysis getIT software (Olympus).

[8] = In vitro incubation of 33-mer in blood plasma, SDS-PAGE and fluorography; type: in vitro ADME, C57BL/6 mouse; conditions: C57BL/6 plasma with 33-mer 28.6 ng/µl, 0-4 h
From the text: as §1

[9] = mouse, in vivo; remark: listed apart in the source
Protocol: Heparin-plasma was prepared from tail blood at 0°C and analysed by SDS-PAGE without further processing, after depletion of albumin and IgG using a commercial kit (Protea Biosciences) or after digestion with trypsin (incubation with 125 mM dithiothreitol, 0.05% SDS at 53°C, pH 7.5 for 45 min, followed by digestion with trypsin (Fluka) at 37°C). The gel was fixed in 15% formalin/25% ethanol and Coomassie-stained. For fluorography, the fixed gels were soaked in 7% glycerol and Amplify Fluorographic Reagent (GE Healthcare), each for 30 min, dried, and exposed on Amersham Hyperfilm MP at −80°C. Subsequently, the dried gels were rehydrated in 7% acetic acid for 2–4 h and Coomassie-stained.
For scintillation counting, gel slices were excised from the nonfixed gel, covered with 600 μL of 30% hydrogen peroxide, and heated at 50°C overnight before measurement.
For kinetics studies, using SDS-PAGE and fluorography, 230 μCi ^3H-33-mer or 770 μCi of ^3H-19-mer was used for i.v. administration and 620–1200 μCi ^3H-33-mer was used for oral administration to NOD mice aged 6–8 weeks.
Blood and organs were sampled after 1, 24 and 72 h. […] Kinetics of 3H-33-mer and 3H-19-mer in mouse blood following i.v. and p.o. administration. 3H-33-mer (A) or 3H-19-mer (B) was given i.v. to NOD mice (6-8 weeks). Tail blood was analyzed by SDS-PAGE and fluorography at the indicated time points (min). CT: control 33-mer/19-mer. In (A, right), 660 µg of unlabeled 33-mer was injected prior to the labeled peptide. (C) 3H-33-mer was administered p.o. to NOD mice (6-8 weeks). Blood was analyzed after 0.5, 1 and 20 h. All lanes were loaded with the same amount of radioactivity. CT is control 33-mer. (D) Fluorogram of in vitro incubation of blood plasma from a C57BL/6 mouse with 33-mer (28.6 ng/µl or 222.000 dpm/µl) for 0-4 h. CT is control 33-mer. (E) Plasma from mice, that had received 3H-labelled 33-mer one hour earlier by i.v. or p.o. administration, was depleted of albumin and IgG. […] Data were normalized between lanes to contain identical amounts of radioactivity outside the albumin/IgG region. […]

[10] = Autoradiography of mouse tissues; conditions: 1 h after oral administration
Protocol: as §6

Row | Sample in which the 33-mer fragment was found [2] | Compound | Sample (filtrate or gel slice range) in which the fragment was found [1] | also measured
1 |  | LQLQPFPQPELPYPQPELPYPQPELPYPQP [33-mer fragment formed in mouse plasma in vitro, MALDI-TOF MS mass match] | 14–18 kDa | 
2 | Plasma, C57BL/6 | LQLQPFPQPELPYPQPELPYPQPELPYPQPQP | 4–6 kDa | Stability as originally described (digestive proteases): stable
3 | Plasma, NOD pancreas, C57BL/6 | ELPYPQPELP |  | 
4 |  | QLQPFPQPELPYPQPELPYPQPELPYPQPQP [33-mer fragment formed in mouse plasma in vitro, MALDI-TOF MS mass match] | 14–17 kDa | 
5 |  | ELPYPQPELPYPQPEL [33-mer fragment formed in mouse plasma in vitro, MALDI-TOF MS mass match] | Filtrate | 
6 |  | H-LGQQQPFPPQQPYPQPQPF-OHY [19-mer] |  | Absorption from the intestine [3]: readily absorbed from the intestine; Level of label in the pancreas relative to blood [3]: high level of label; Presence of label at early time points [3]: present 1/2 h after administration and still remained 3 hours after oral administration; Resistance to digestive proteases (digestive proteases): resistant to digestive proteases
7 |  | LQLQPFPQPELPYPQPELPYPQPELPYPQPQ [33-mer fragment formed in mouse plasma in vitro, MALDI-TOF MS mass match] | 14–17 kDa | 
8 | Plasma, NOD | ELPYPQPQPF |  | 
9 | Plasma, NOD | QPFPQPELP |  | 
10 |  | N[C@@H](Cc1ccc(O)cc1)C(=O)O [3H-tyrosine, tyrosine] |  | Level of label in the pancreas relative to blood [4]: accumulated similarly to the 33- and 19-mer; HMW band after injection [5]: appearance of the HMW band
11 | Pancreas, C57BL/6 | LQLQPFPQPE |  | 
12 | Pancreas, C57BL/6 | QLQPFPQPEL |  | 
13 | Plasma, NOD pancreas, NOD | ELPYPQPELPYP |  | 
14 |  | FPQPELPYPQPELPYPQPELPYPQPQPF [33-mer fragment formed in mouse plasma in vitro, MALDI-TOF MS mass match] | 10–12 kDa | 
15 |  | ELPYPQPELPYPQPELPYPQPQPF [33-mer fragment formed in mouse plasma in vitro, MALDI-TOF MS mass match] | 14–18 kDa | 
16 | Plasma, NOD | QLQPFPQPELP |  | 
17 |  | PFPQPELPYPQPELPYPQPELPYPQPQPF [33-mer fragment formed in mouse plasma in vitro, MALDI-TOF MS mass match] | 10–12 kDa | 
18 | Plasma, NOD | ELPYPQPELPYPQ |  | 
19 |  | H-LQLQPFPQPELPYPQPELPYPQPELPYPQPQPF-OHY [33-mer] | 4–6 kDa, 6–9 kDa, 14–17 kDa | Absorption from the intestine [3]: readily absorbed from the intestine; Level of label in the pancreas relative to blood [3]: high level of label; Presence of label at early time points [3]: present 1/2 h after administration and still remained 3 hours after oral administration; Longest peptide detected in blood ([2]; after oral 33-mer): 32-mer; Label removed by depletion of albumin and IgG (albumin and IgG; 3H-33-mer added to blood in vitro, or cold peptide injected prior to labeled peptide): 14-15%; Label removed by depletion of albumin and IgG (albumin and IgG; blood of mice that had received 33-mer, regardless of route, plasma 1 h after administration): 35%; Intact peptide in plasma after oral administration ([6]; 650 µg p.o., 60 min): detected intact peptide; also recorded: close to the detection limit, and the peptide was not detected in all mice; Intact peptide in plasma after intravenous administration ([6]; 850 µg i.v., 15, 30 and 60 min): detected intact peptide; Degradation by trypsin (trypsin): degrades albumin, but not 33-mer; Difference between i.v. and p.o. administration in autoradiography [7]: No difference was seen; Formation of 12 kDa and HMW signals in vitro [8]: the 12 kDa signal, but not the HMW signal, also formed in vitro; Resistance to digestive proteases (digestive proteases): resistant to digestive proteases; Emergence of higher molecular weight species (HMW) in blood after injection ([9]; iv): After 1 h, higher molecular weight species (HMW) emerged; 33-mer signal in blood after oral administration ([9]; po): still present in the blood, although in low amounts; Label in zymogen granules of the pancreas [10]: high accumulation of label; Label in all other tissues examined ([10]; lung, kidney, ileum): homogenous labeling was observed
20 | Plasma, C57BL/6 | FPQPELPY |  | 
21 |  | ELPYPQPELPYPQPELPY [33-mer fragment formed in mouse plasma in vitro, MALDI-TOF MS mass match] | Filtrate | 
22 | Plasma, NOD | YPQPQPF [33-mer fragment assigned by MALDI-TOF MS mass match] | Filtrate | 
23 |  | QPFPQPELPYPQPELPYPQPELPYPQPQPF [33-mer fragment formed in mouse plasma in vitro, MALDI-TOF MS mass match] | 14–18 kDa | 
24 | Pancreas C57BL/6 | QPFPQPELPY [33-mer fragment assigned by MALDI-TOF MS mass match] | Filtrate | 
25 |  | ELPYPQPEL [33-mer fragment formed in mouse plasma in vitro, MALDI-TOF MS mass match] | Filtrate | 

Row | Compound | Sample in which the 33-mer fragment was found [2] | Sample (filtrate or gel slice range) in which the fragment was found [1] | also measured
26 | LQLQPFPQPELPYPQPELPYPQPELPYP | Plasma, NOD, C57BL/6 |  | 
27 | QPFPQPELPYPQPELPYPQPELPYPQPQ | Plasma, NOD, C57BL/6 |  | 
28 | LQPFPQPELPYPQPELPYPQPELPYPQPQ | Plasma, NOD, C57BL/6 |  | 
29 | QPFPQPELPYPQPELPYPQPELPYPQPQP | Plasma, NOD, C57BL/6 |  | 
30 | LQLQPFPQPELPYPQPE [33-mer fragment assigned by MALDI-TOF MS mass match] | Plasma, NOD | 4–6 kDa | 
31 | LPYPQPELPYPQPQPF | Pancreas, NOD, C57BL/6 |  | 
32 | YPQPELPYPQPQPF [33-mer fragment assigned by MALDI-TOF MS mass match] | Plasma, NOD, C57BL/6 | Filtrate | 
